Source: US11241402B2, “Methods of treating liver fibrosis by administering 3-bromopyruvate” (The Johns Hopkins University, priority 2015, dated 2022)
“Also recorded” adds a separate entry of the source.

Key:
activated-LX-2 cells = test: Determination of nontoxic maximum tolerated dose (cell viability, Trypan-blue exclusion or intracellular ATP); assay type: cell-based, human; details: maximum dose allowing more than 50% survival; 5-50 μM tested for 24, 48 and 72 hours
Description: To determine the nonlethal, maximum tolerated dose (MTD) of 3-BrPA for activated-LX-2 cells, the cell viability was assessed using either Trypan-blue exclusion or quantification of intracellular ATP level. The later was performed using the Cell-Titer Glo Assay kit (Promega Corp., Madison, Wis.) and the FLUOstar Omega plate reader (BMG Labtech, UK). In brief, cells plated in 96-well flatbottomed opaque plates were treated with different concentrations of 3-BrPA (5 μM, 10 μM, 25 μM and 50 μM) for 24, 48 and 72 hours followed by the quantification of intracellular ATP. The maximum dose of 3-BrPA that allowed more than 50% survival (a concentration <IC50) was selected for further experiments.

activated LX-2 cells [1] = test: Metronomic therapy of activated-LX-2 cells: morphology / phenotype; assay type: cell-based, human; details: for change in morphology / phenotype of aLX-2 cells: monotherapy, metronomic: 3-BrPA 25 μM or AICAR 0.5 mM
From the text: LX-2, a human stellate cell line, was a gift of Dr. Scott L. Friedman from the Mount Sinai School of Medicine (New York, N.Y., USA). The LX-2 cells when cultured on plastic are active in fibrogenesis (Gaca et al., 2003), and these activated LX-2 cells were used in most experiments. De-activated (quiescent) LX-2 cells prepared by culturing the LX-2 cells on Matrigel (Gaca et al., 2003; Sohara et al., 2002; Troeger et al., 2012) were used as controls. The activated and de-activated LX-2 cells were then cultured in Dulbecco's Modified Eagle's Medium (DMEM) containing 10% FBS, 0.1% antibiotic (Penicillin-Streptomycin) and 0.1% Fungizone on plastic as described previously (Tang et al., 2003). Rat hepatic stellate cells were
(§1) To analyze the effect of 3-BrPA on activated-LX-2 cells, the principle of metronomic therapy, a repeated but low, nonlethal dose of 3-BrPA ([…]) was adopted. A known number of cells were plated in 6-well plates, 10 cm petri dishes or chamber slides as required and the culture media was replaced with fresh culture media containing the drug(s) on alternative days. The cells were treated for a period of 13 days for immunofluorescence studies and 6 days for all other studies including biochemical analysis. Monotherapy involved treating the cells with 3-BrPA alone or AICAR (0.5 mM) in DMEM with 2.5% FBS. The concentration of AICAR was chosen based on the prior reports (Lim et al., 2012). Combination therapy involved using half of the dose used for the monotherapy of AICAR and 3-BrPA.

[2] = system: human primary hepatocytes; test: Morphology and cell viability of human primary hepatocytes at the metronomic dose; assay type: cell-based
Description: (§2) isolated and cultured as described previously (Anania et al., 1996). Human primary hepatocytes were obtained from Invitrogen and cultured in William's medium (without phenol red) along with plating and maintenance supplements.
as §1

activated LX-2 cells [3] = test: Immunofluorescence / immunoblot of profibrogenic markers (α-SMA, CK-18); assay type: cell-based, human; details: aLX-2 cells
Description: as §1
LX-2 cells were grown in chamber slides in the same media used for culture. […]
For western blotting, control and treated cells were washed in PBS, lysed in RIPA lysis buffer (Sigma-Aldrich) with a protease inhibitor cocktail and a phosphatase inhibitor cocktails (both from Sigma-Aldrich) at 4° C. using a dounce homogenizer. […] The clear supernatants were collected and the protein concentrations were analyzed using a 2-D Quant protein assay Kit (GE Healthcare) as described (Ganapathy-Kanniappan et al., 2009a). […]

activated LX-2 cells [4] = test: Gelatin zymography for MMP activity in conditioned medium, verified by immunoblot; assay type: cell-based, human; details: aLX-2 cells, zymogram and immunoblots
Description: as §1
The level of MMP activity in the conditioned medium of control and treated LX-2 cells and/or rat HSCs was quantified by gelatin zymography. In brief, upon the completion of drug treatment protocol, media from both control and treated cells were removed, cells were rinsed with PBS and replaced with serum-free DMEM media and cultured overnight at 37° C. prior to the collection of media containing secreted proteins for further analysis. […]

activated LX-2 cells [5] = test: Collagen staining (trichrome) and collagen mRNA by qRT-PCR; assay type: cell-based, human; details: aLX-2 cells
Description: Gene expression analysis was performed by using qRT-PCR with a sequence detection system (ABI 7900HT; Applied Biosystems, Bedford, Mass., USA). The total RNA was extracted and the cDNA thus synthesized were subjected to qRT-PCR analysis using SYBR Green PCR Kit (Applied Biosystems) for genes associated with invasiveness and motility like Vimentin (VIM), Cadherin-12 (CDH12), Snail (SNAI1), Transgelin (TGN) (31-33) and TaqMan PCR Kit for Coll1α (Mm 00801666_g1). The primers used for respective gene amplification were synthesized by RealTimePrimers.com (Elkins Park, Pa., USA) or Life Technologies (Coll1α): […]
Tissue sections were deparaffinized in xylene followed by rehydration through graded series of alcohol followed by staining for collagen using Masson's Trichrome stain (Sigma Aldrich, St. Louis, Mo.) or Sirius Red stain (PolySciences. Inc Warrington, Pa.). For in vitro studies, the LX-2 cells were grown in chamber slides containing appropriate growth medium. They were fixed with 4% formaldehyde for 10 minutes, rapidly rehydrated with Phosphate-buffered saline (PBS), following which, the staining was performed.

[6] = system: rat hepatic stellate cells; test: Fibrotic markers in rat hepatic stellate cells (confocal α-SMA, MMP-9 immunoblot); assay type: cell-based
From the text: as §2
The level of MMP activity in the conditioned medium of control and treated LX-2 cells and/or rat HSCs was quantified by gelatin zymography. In brief, upon the completion of drug treatment protocol, media from both control and treated cells were removed, cells were rinsed with PBS and replaced with serum-free DMEM media and cultured overnight at 37° C. prior to the collection of media containing secreted proteins for further analysis. The media thus collected were concentrated using a 3000 Da centrifugal filter (Amicon Inc., Pineville, N.C., USA) at 2500 rpm for 30 minutes at 4° C. and then stored at −80° C. until further analysis. Protein (˜10 μg) samples from the conditioned media of control and treated cells were subjected to zymography as described (Kunjithapatham et al., 2014). The MMP activity was visualized as clear bands. The identity of the MMP associated with zymogram signal (activity) was verified by immunoblot analysis.

activated LX-2 cells [7] = test: Energy metabolism markers (immunofluorescence, immunoblot, lactate secretion); assay type: cell-based, human; details: aLX-2 cells
Description: as §1
LX-2 cells were grown in chamber slides in the same media used for culture. They were fixed with 4% formaldehyde for 10 minutes, rapidly rehydrated with Phosphate-buffered saline (PBS) and permeabilized with a 0.20% Triton X-100 solution in PBS for imaging of MCT-1, MCT-4 and ATPSE. The cells were incubated with primary antibodies in PBS for 1 hour at room temperature in a humidified chamber. They were then washed and incubated at room temperature with secondary antibody labeled with Texas Red
For western blotting, control and treated cells were washed in PBS, lysed in RIPA lysis buffer (Sigma-Aldrich) with a protease inhibitor cocktail and a phosphatase inhibitor cocktails (both from Sigma-Aldrich) at 4° C. using a dounce homogenizer. The lysates were centrifuged at 12,000×g for 15 min at 4° C. to remove any cell debris. The clear supernatants were collected and the protein concentrations were analyzed using a 2-D Quant protein assay Kit (GE Healthcare) as described (Ganapathy-Kanniappan et al., 2009a). In brief, protein samples were resolved on a 4-12% Bis-Tris gel by electrophoresis with MOPS buffer or via 12% Bis-Tris gel electrophoresis with MES running buffer (for low molecular weight targets) and blotted onto PVDF membranes (BioRad, Hercules, Calif., USA) followed by immunoblotting with specific antibodies. Immune complexes were visualized by ECL-detection kit (GE Health Care).

| SMILES | MTD (nonlethal, maximum tolerated dose) in aLX-2 cells (activated-LX-2 cells) [µM] | stability of phenotypic changes after withdrawal of the drug (activated LX-2 cells [1]; aLX-2 cells, 6 days post-treatment) | change in morphology of aLX-2 cells in the presence of AICAR (activated LX-2 cells [1]; combination of 3-BrPA and AICAR, half of the monotherapy doses) | change in morphology / phenotype of aLX-2 cells (activated LX-2 cells [1]) | sensitivity / cell viability / toxicity, human primary hepatocytes ([2]; 3-BrPA 25 μM, in vitro) | morphological change of human primary hepatocytes ([2]; same metronomic dose (25 μM)) | level of CK-18 (activated LX-2 cells [3]; immunofluorescence) | level of α-SMA (activated LX-2 cells [3]; immunofluorescence and immunoblot) | secretion of MMPs (MMP-2, MMP-9) (activated LX-2 cells [4]) | α1 (I) collagen mRNA (activated LX-2 cells [5]) | collagen (trichrome staining) (activated LX-2 cells [5]; text says liver collagen) | α-SMA in rat hepatic stellate cells ([6]; confocal microscopic images) | secretion of MMP-9 in rat hepatic stellate cells ([6]; immunoblot) | expression level of lactate transporter MCT-4 (activated LX-2 cells [7]) | expression of ATPSE (F1-F0 ATPase) (activated LX-2 cells [7]) | expression of MCT-1 (activated LX-2 cells [7]) | level of lactate secretion (activated LX-2 cells [7]) | expression level of lactate dehydrogenase (LDH) (activated LX-2 cells [7]; immunoblot) | toxicity to mouse hepatocytes (mouse hepatocytes) |
| --- | --- | --- | --- | --- | --- | --- | --- | --- | --- | --- | --- | --- | --- | --- | --- | --- | --- | --- | --- |
| O=C(O)C(=O)CBr [3-BrPA, 3-bromopyruvate] | 25 | stable, even after withdrawal of the drug | promoted the changes even in the presence of AICAR | induced changes in phenotype including an elongated, spindle-shaped morphology | not sensitive; also recorded: not toxic; also recorded: remained unaffected | did not under go any morphological change | prominent decrease | reduced | elevated | decreased | decreased | decrease | increase | increased | significantly downregulated | unaffected | increased | increased | not toxic |
| NC(=O)c1ncn([C@@H]2O[C@H](CO)[C@@H](O)[C@H]2O)c1N [AICAR, reference compound] |  |  |  | did not induce any change in morphology |  |  |  |  |  |  |  |  |  |  |  |  |  |  |  |
